In paper PMC7125024 (ChemMedChem, 2020):
Counter-ions that a name gives are not always drawn. Like-named read-outs stand apart in the source and are kept apart here.

Columns and labels:
[1] = biological target: human recombinant LSD1/CoREST enzymatic complex (Homo sapiens, UniProt O60341); experiment: LSD1 enzyme inhibition assay; assay type: biochemical
MV4–11 AML cells [2] = experiment: cells; conditions: Homo sapiens, MV4-11, 48 h, read-out: IC50 MV4–11 (antiproliferative activity)
NB4 APL cells [3] = experiment: cells; conditions: Homo sapiens, 48 h, read-out: IC50 NB4 (antiproliferative activity)
human MAO A = biological target: T1, human MAO A (Homo sapiens, UniProt P21397); experiment: Anti-MAO assay; assay type: biochemical; conditions: for inhibition at 100 µM: read-out: % inhibition at 100 μM MAO A; for % inhibition at 100 μM MAO A: NI = no inhibition
T1 sequence (P21397 1-527): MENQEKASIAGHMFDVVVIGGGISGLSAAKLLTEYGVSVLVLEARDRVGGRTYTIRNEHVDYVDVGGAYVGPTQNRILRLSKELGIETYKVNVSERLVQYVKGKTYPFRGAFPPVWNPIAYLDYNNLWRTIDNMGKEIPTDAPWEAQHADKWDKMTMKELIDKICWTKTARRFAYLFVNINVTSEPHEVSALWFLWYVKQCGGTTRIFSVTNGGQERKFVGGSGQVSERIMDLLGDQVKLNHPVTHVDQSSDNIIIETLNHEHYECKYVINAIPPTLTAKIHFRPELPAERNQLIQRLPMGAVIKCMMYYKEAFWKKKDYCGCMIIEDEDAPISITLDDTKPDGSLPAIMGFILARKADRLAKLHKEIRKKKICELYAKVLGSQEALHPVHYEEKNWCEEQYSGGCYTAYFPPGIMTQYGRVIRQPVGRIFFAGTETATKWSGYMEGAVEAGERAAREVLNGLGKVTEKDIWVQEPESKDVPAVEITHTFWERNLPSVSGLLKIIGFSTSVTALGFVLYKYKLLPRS

human MAO B [4] = biological target: T2, human MAO B (Homo sapiens, UniProt P27338); experiment: Anti-MAO assay; assay type: biochemical; conditions: read-out: % inhibition at 100 μM MAO B
T2 sequence (P27338 1-520): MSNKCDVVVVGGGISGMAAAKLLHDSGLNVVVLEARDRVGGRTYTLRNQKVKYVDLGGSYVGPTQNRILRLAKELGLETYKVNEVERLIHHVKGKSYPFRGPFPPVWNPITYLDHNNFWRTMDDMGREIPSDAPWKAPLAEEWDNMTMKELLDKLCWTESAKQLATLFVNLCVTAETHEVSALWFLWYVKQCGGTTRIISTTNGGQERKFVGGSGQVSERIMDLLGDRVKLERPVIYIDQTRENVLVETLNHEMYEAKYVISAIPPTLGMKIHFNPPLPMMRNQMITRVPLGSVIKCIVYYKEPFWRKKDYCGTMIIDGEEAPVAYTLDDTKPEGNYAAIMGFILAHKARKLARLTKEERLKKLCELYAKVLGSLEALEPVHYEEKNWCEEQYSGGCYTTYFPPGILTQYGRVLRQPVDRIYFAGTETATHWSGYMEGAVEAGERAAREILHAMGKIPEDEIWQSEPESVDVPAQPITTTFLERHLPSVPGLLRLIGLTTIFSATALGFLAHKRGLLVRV

MV4–11 AML cells [5] = conditions: read-out: IC50 MV4–11 (antiproliferative activity), 48 h
NB4 APL cells [6] = conditions: read-out: IC50 NB4 (antiproliferative activity), 48 h
human MAO B [7] = biological target: T2, human MAO B; conditions: added for comparison, ref [13b], [19]; cited from earlier work
[8] = Microsomal stability in liver microsomes; assay type: in vitro ADME; conditions: mouse, pH 7.4
[9] = Microsomal stability in liver microsomes; assay type: in vitro ADME; conditions: human, pH 7.4
[10] = read-out: LSD1, IC50, LSD1/CoREST, 15 min preincubation, NI = no inhibition

NC1CC1c1ccc(NC(=O)c2ccc(Sc3ccccc3)c(NC(=O)OCc3ccccc3)c2)cc1 (centres unmarked) [3i, Benzyl (5-((4-(2-aminocyclopropyl)phenyl)carbamoyl)-2-(phenylthio)phenyl)carbamate hydrochloride]
IC50 [1]: 0.073 ± 0.011 µM | IC50 (MV4–11 AML cells [2]): 21.4 ± 3.3 µM | IC50 (NB4 APL cells [3]): 23.2 ± 3.8 µM

CNC1CC1c1ccccc1 (centres unmarked) [4a, N-methyl-TCP]
IC50 [1, 10]: 10.8 ± 1.1 µM | LSD1/CoREST potency relative to TCP (fold less effective) [1]: same potency of TCP

NC1CC1c1ccc(NC(=O)c2ccccc2NC(=O)OCc2ccccc2)cc1 (centres unmarked) [3j, Benzyl (2-((4-(2-aminocyclopropyl)phenyl)carbamoyl)phenyl)carbamate hydrochloride]
IC50 [1]: 0.146 ± 0.022 µM | inhibition at 100 µM (human MAO A): 72% | inhibition at 100 µM (human MAO B [4]): 17% | IC50 (MV4–11 AML cells [2]): 8.2 ± 1.2 µM | IC50 (NB4 APL cells [3]): 8.1 ± 0.9 µM

NC(=O)C1(c2ccccc2)CC1 [4g, 1-Phenylcyclopropane-1-carboxamide]
IC50 [1, 10]: > 100 µM

NC1CC1c1ccc(NC(=O)c2cc(NC(=O)c3ccccc3)ccc2OCC(=O)Nc2ccccc2)cc1 (centres unmarked) [3m, N-(4-(2-aminocyclopropyl)phenyl)-5-benzamido-2-(2-oxo-2-(phenylamino)ethoxy)benzamide hydrochloride]
IC50 [1]: 3.9 ± 0.2 µM | IC50 (MV4–11 AML cells [2]): 5.6 ± 1.1 µM | IC50 (NB4 APL cells [3]): 5.5 ± 1.4 µM

NC1CC1c1ccc(NC(=O)OCc2ccccc2)cc1 (centres unmarked) [1b, benzyl [4-(2-aminocyclopropyl)phenyl]carbamate]
inhibition at 100 µM (human MAO A): 96% | inhibition at 100 µM (human MAO B [4]): 37% | IC50 (MV4–11 AML cells [2]): 22.4 ± 3.8 µM | IC50 (NB4 APL cells [3]): 25 ± 3.2 µM

CN1CCN(c2cc(C(=O)Nc3ccc(C4CC4N)cc3)ccc2NC(=O)OCc2ccccc2)CC1 (centres unmarked) [3c, Benzyl 4-(4-(2-aminocyclopropyl)phenylcarbamoyl)-2-(4-methylpiperazin-1-yl)phenylcarbamate hydrochloride]
IC50 [1]: 0.089 ± 0.01 µM | inhibition at 100 µM (human MAO A): 69% | inhibition at 100 µM (human MAO B [4]): 55% | IC50 (MV4–11 AML cells [2]): 2.5 ± 0.1 µM | IC50 (NB4 APL cells [3]): 0.9 ± 0.06 µM

Cl.NC1CC1c1ccc(NC(=O)c2ccc(Br)cc2NC(=O)OCc2ccccc2)cc1 (centres unmarked) [3k, Benzyl (2-((4-(2-aminocyclopropyl)phenyl)carbamoyl)-5-bromophenyl)carbamate hydrochloridrate]
IC50 [1, 10]: 0.159 ± 0.034 µM | % inhibition at 100 μM MAO A (human MAO A): 94% | IC50 (MV4–11 AML cells [5]): 6.2 ± 0.7 µM | IC50 (NB4 APL cells [6]): 9.3 ± 1 µM

NC(=O)C1CC1c1ccccc1 (centres unmarked) [4c, 2-Phenylcyclopropane-1-carboxamide]
IC50 [1, 10]: > 100 µM

NC1(c2ccc(NC(=O)C(Cc3ccccc3)NC(=O)OCc3ccccc3)cc2)CC1 (centres unmarked) [4f, Benzyl (1-((4-(1-aminocyclopropyl)-phenyl)-amino)-1-oxo-3-phenylpropan-2-yl)-carbamate hydrochloride]
IC50 [1, 10]: > 100 µM

NC1CC1c1ccc(NC(=O)C(Cc2ccccc2)NC(=O)OCc2ccccc2)cc1 (centres unmarked) [2a]
% inhibition at 100 μM MAO B (human MAO B [7]): 1%

NC1(c2ccccc2)CC1 [4e, 1-Phenylcyclopropan-1-amine hydrochloride]
IC50 [1, 10]: > 100 µM

NC1CC1c1ccc(NC(=O)c2ccc(Oc3ccccc3)c(NC(=O)OCc3ccccc3)c2)cc1 (centres unmarked) [3h, Benzyl (5-((4-(2-aminocyclopropyl)phenyl)carbamoyl)-2-phenoxyphenyl)carbamate hydrochloride]
IC50 [1]: 0.143 ± 0.028 µM | IC50 (MV4–11 AML cells [2]): 3.3 ± 0.3 µM | IC50 (NB4 APL cells [3]): 5.4 ± 0.6 µM

NNC(=O)C1CC1c1ccccc1 (centres unmarked) [4d, 2-phenylcyclopropane-1-carbohydrazide]
IC50 [1, 10]: > 100 µM

Cl.NC1CC1c1cccc(NC(=O)C(Cc2ccccc2)NC(=O)OCc2ccccc2)c1 (centres unmarked) [2b, Benzyl (1-((3-(2-aminocyclopropyl)phenyl)amino)-1-oxo-3-phenylpropan-2-yl)carbamate hydrochloride]
IC50 [1]: 18.1 ± 2.9 µM | fold decrease of anti-LSD1 potency relative to 2a [1]: > 120 fold | IC50 (MV4–11 AML cells [2]): 24.2 ± 3.1 µM | IC50 (NB4 APL cells [3]): 42.7 ± 5.8 µM

CN(C)C1CC1c1ccccc1 (centres unmarked) [4b, N,N-dimethyl-TCP]
IC50 [1, 10]: 56.2 ± 7.8 µM | LSD1/CoREST potency relative to TCP (fold less effective) [1]: 5 fold

NC1CC1c1ccc(NC(=O)c2ccc(-c3ccccc3)cc2NC(=O)OCc2ccccc2)cc1 (centres unmarked) [3l, Benzyl (4-((4-(2-aminocyclopropyl)phenyl)carbamoyl)-[1,1’-biphenyl]-3-yl)carbamate hydrochloride]
IC50 [1]: 0.135 ± 0.029 µM | IC50 (MV4–11 AML cells [2]): 8.1 ± 1 µM | IC50 (NB4 APL cells [3]): 7.6 ± 0.8 µM

N[C@@H]1C[C@H]1c1ccccc1 (racemic) [TCP, tranylcypromine, reference compound]
% inhibition at 100 μM MAO A (human MAO A): 79% | IC50 (MV4–11 AML cells [5]): > 100 µM | IC50 (NB4 APL cells [6]): > 100 µM

NCC1(c2ccccc2)CC1 [4h, (1-phenylcyclopropyl)methanamine]
IC50 [1, 10]: > 100 µM

NC1CC1c1ccc(NC(=O)c2cc(NC(=O)c3ccccc3)ccc2OCC(=O)NCc2ccccc2)cc1 (centres unmarked) [3n, N-(4-(2-aminocyclopropyl)phenyl)-5-benzamido-2-(2-(benzylamino)-2-oxoethoxy)benzamide]
IC50 [1]: 1.7 ± 0.05 µM | IC50 (MV4–11 AML cells [2]): 3.3 ± 0.6 µM | IC50 (NB4 APL cells [3]): 3.8 ± 0.8 µM

NC1CC1c1ccc(NC(=O)c2ccc(NC(=O)OCc3ccccc3)cc2)cc1 (centres unmarked) [3a, Benzyl (4-((4-(2-aminocyclopropyl)phenyl)carbamoyl)phenyl)carbamate hydrochloride]
IC50 [1]: 0.09 ± 0.012 µM | inhibition at 100 µM (human MAO A): 37% | inhibition at 100 µM (human MAO B [4]): 8% | microsomal CLint at 1 μM [8]: 7.1 ± 2.2 µL/min/mg | microsomal CLint at 1 μM [9]: 6.7 ± 1.1 µL/min/mg | IC50 (MV4–11 AML cells [2]): 0.4 ± 0.01 µM | IC50 (NB4 APL cells [3]): 0.6 ± 0.02 µM

NN1CC1c1ccccc1 (centres unmarked) [4i, 2-phenylaziridin-1-amine]
IC50 [1, 10]: > 100 µM
